Experimental data published in ChEMBL document CHEMBL1201862, “PubChem BioAssay data set” (2004).
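Compound exposure: 48 hours, 5 concentrations, 96-well plates. GI50 marks 50% less growth.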 Activity calls are given as the source filed them. Cut-off read from the data, not from the text of the source: active = GI50 up to about 1.1 µM and inactive = higher.

Legend:
Assay in all cases: growth of human tumour cells (NCI), 48 h
SNB-75 = system: SNB-75
U-251 = system: U-251
NCI-H460 = system: NCI-H460
SK-MEL-5 = system: SK-MEL-5
MDA-MB-435 = system: MDA-MB-435
SK-MEL-2 = system: SK-MEL-2
SW-620 = system: SW-620
IGROV-1 = system: IGROV-1
A549 = system: A549
OVCAR-3 = system: OVCAR-3
TK-10 = system: TK-10
MCF7 = system: MCF7
DU-145 = system: DU-145
UO-31 = system: UO-31
SNB-19 = system: SNB-19
A498 = system: A498
SF-295 = system: SF-295
RPMI-8226 = system: RPMI-8226
LOX IMVI = system: LOX IMVI
SK-MEL-28 = system: SK-MEL-28

Compound	GI50 (SNB-75)	GI50 (U-251)	GI50 (NCI-H460)	GI50 (SK-MEL-5)	GI50 (MDA-MB-435)	GI50 (SK-MEL-2)	GI50 (SW-620)	GI50 (IGROV-1)	GI50 (A549)	GI50 (OVCAR-3)	GI50 (TK-10)	GI50 (MCF7)	GI50 (DU-145)	GI50 (UO-31)	GI50 (SNB-19)	GI50 (A498)	GI50 (SF-295)	GI50 (RPMI-8226)	GI50 (LOX IMVI)	GI50 (SK-MEL-28)
C=C(C)c1nc(Oc2ccccc2)nc(Oc2ccccc2)n1	9.75 µM (inactive)	10.6 µM (inactive)	9.04 µM (inactive)	13.7 µM (inactive)	10.3 µM (inactive)	2.21 µM (inactive)	3.82 µM (inactive)	9.38 µM (inactive)	19.5 µM (inactive)	6.04 µM (inactive)	3.72 µM (inactive)	3.08 µM (inactive)	16.5 µM (inactive)	17.6 µM (inactive)	9.33 µM (inactive)	17.3 µM (inactive)	14.9 µM (inactive)	1.57 µM (inactive)	2.08 µM (inactive)	3.86 µM (inactive)
C=C(C(=O)OC1C(CO)OC(OCC2CC[C@@H]3C[C@]4(OC(=O)C3=C)C(C)=CC(=O)C24)C(O)C1O)[C@@H]1CCC(CO)C2C(=O)C=C(C)[C@@]2(O)C1 (some centres undefined)	13.8 µM (inactive)	4.68 µM (inactive)	3.3 µM (inactive)	1.29 µM (inactive)	2.09 µM (inactive)	2.47 µM (inactive)	0.603 µM (active)	2.79 µM (inactive)	4.37 µM (inactive)	2.02 µM (inactive)	3.07 µM (inactive)	1.16 µM (inactive)	3.61 µM (inactive)	1.76 µM (inactive)	16.4 µM (inactive)	2.9 µM (inactive)	17.1 µM (inactive)	0.356 µM (active)	2.18 µM (inactive)	3.34 µM (inactive)
COc1ccc(NS(=O)(=O)c2ccc3ncn(NS(=O)(=O)c4ccc(I)cc4)c(=O)c3c2)cc1	> 100 µM (inactive)	> 100 µM (inactive)	> 100 µM (inactive)	> 100 µM (inactive)	84.1 µM (inactive)	> 100 µM (inactive)	> 100 µM (inactive)	> 100 µM (inactive)	> 100 µM (inactive)	> 100 µM (inactive)	> 100 µM (inactive)	> 100 µM (inactive)	> 100 µM (inactive)	43.3 µM (inactive)	> 100 µM (inactive)	> 100 µM (inactive)	> 100 µM (inactive)	6.03 µM (inactive)	8.77 µM (inactive)	> 100 µM (inactive)
CS(=O)(=O)O.[Ag]	12.3 µM (inactive)	16.3 µM (inactive)	20.2 µM (inactive)	5.3 µM (inactive)	2.91 µM (inactive)	15.4 µM (inactive)	3.01 µM (inactive)	1.6 µM (inactive)	10.3 µM (inactive)	23.8 µM (inactive)	2.42 µM (inactive)	4.03 µM (inactive)	17.1 µM (inactive)	1.78 µM (inactive)	29.3 µM (inactive)	20.8 µM (inactive)	34.2 µM (inactive)	2.49 µM (inactive)	3.09 µM (inactive)	18.4 µM (inactive)
COc1cc2nc3n(c(=O)c2cc1OC)-c1ccc([N+](=O)[O-])cc1C3=O	85.1 µM (inactive)	46.7 µM (inactive)	68.4 µM (inactive)	50.8 µM (inactive)	19.4 µM (inactive)	> 100 µM (inactive)	11.3 µM (inactive)	26.1 µM (inactive)	52.7 µM (inactive)	22.6 µM (inactive)	61.7 µM (inactive)	11.9 µM (inactive)	34.6 µM (inactive)	11.8 µM (inactive)	> 100 µM (inactive)	17.5 µM (inactive)	83.2 µM (inactive)	28.7 µM (inactive)	38.7 µM (inactive)	3.15 µM (inactive)
CCCOc1ccc2sc(NC(=O)c3cc([N+](=O)[O-])cc([N+](=O)[O-])c3)nc2c1	30.5 µM (inactive)	32.4 µM (inactive)	50.4 µM (inactive)	17 µM (inactive)	36.7 µM (inactive)	50.2 µM (inactive)	31 µM (inactive)	10.6 µM (inactive)	24.1 µM (inactive)	26.3 µM (inactive)	28.1 µM (inactive)	40.2 µM (inactive)	60.7 µM (inactive)	18.5 µM (inactive)	42.5 µM (inactive)	23.7 µM (inactive)	35.6 µM (inactive)	31.8 µM (inactive)	20.8 µM (inactive)	50.5 µM (inactive)
O=c1c2cccnc2cc(-c2ccccc2)n1CCO	> 100 µM (inactive)	> 100 µM (inactive)	> 100 µM (inactive)	> 100 µM (inactive)	> 100 µM (inactive)	> 100 µM (inactive)	> 100 µM (inactive)	> 100 µM (inactive)	> 100 µM (inactive)	> 100 µM (inactive)	> 100 µM (inactive)	> 100 µM (inactive)	> 100 µM (inactive)	> 100 µM (inactive)	> 100 µM (inactive)	> 100 µM (inactive)	> 100 µM (inactive)	> 100 µM (inactive)	> 100 µM (inactive)	> 100 µM (inactive)
CC(C)=CCC/C(=C/CC/C(=C\CCc1ccoc1)C(=O)O)C(=O)O	> 100 µM (inactive)	> 100 µM (inactive)	–	> 100 µM (inactive)	> 100 µM (inactive)	> 100 µM (inactive)	> 100 µM (inactive)	> 100 µM (inactive)	> 100 µM (inactive)	> 100 µM (inactive)	> 100 µM (inactive)	> 100 µM (inactive)	> 100 µM (inactive)	> 100 µM (inactive)	> 100 µM (inactive)	> 100 µM (inactive)	> 100 µM (inactive)	> 100 µM (inactive)	> 100 µM (inactive)	> 100 µM (inactive)
S=c1nc2[nH]c3ccc(Br)cc3c2n[nH]1	40.4 µM (inactive)	53.2 µM (inactive)	63.1 µM (inactive)	36.4 µM (inactive)	20.7 µM (inactive)	25.6 µM (inactive)	53 µM (inactive)	19.3 µM (inactive)	55 µM (inactive)	41 µM (inactive)	> 100 µM (inactive)	19 µM (inactive)	85.3 µM (inactive)	72.8 µM (inactive)	> 100 µM (inactive)	> 100 µM (inactive)	–	37.1 µM (inactive)	30.1 µM (inactive)	> 100 µM (inactive)
Nc1cc(N2CCOCC2)nc(=O)n1-c1ccccc1	> 100 µM (inactive)	> 100 µM (inactive)	> 100 µM (inactive)	> 100 µM (inactive)	> 100 µM (inactive)	> 100 µM (inactive)	> 100 µM (inactive)	> 100 µM (inactive)	> 100 µM (inactive)	> 100 µM (inactive)	–	> 100 µM (inactive)	> 100 µM (inactive)	> 100 µM (inactive)	> 100 µM (inactive)	> 100 µM (inactive)	> 100 µM (inactive)	> 100 µM (inactive)	> 100 µM (inactive)	> 100 µM (inactive)
Nc1ncc(CN2CCOCC2)c(-c2ccccc2O)n1	> 100 µM (inactive)	> 100 µM (inactive)	> 100 µM (inactive)	> 100 µM (inactive)	> 100 µM (inactive)	> 100 µM (inactive)	> 100 µM (inactive)	> 100 µM (inactive)	> 100 µM (inactive)	> 100 µM (inactive)	> 100 µM (inactive)	> 100 µM (inactive)	> 100 µM (inactive)	> 100 µM (inactive)	–	> 100 µM (inactive)	> 100 µM (inactive)	> 100 µM (inactive)	> 100 µM (inactive)	> 100 µM (inactive)
O=C1/C(=C\c2ccc(O)cc2)CCC/C1=C/c1ccc(Cl)c(Cl)c1	2.72 µM (inactive)	4.36 µM (inactive)	–	7.11 µM (inactive)	3.15 µM (inactive)	18.6 µM (inactive)	3.37 µM (inactive)	0.331 µM (active)	3.78 µM (inactive)	3.67 µM (inactive)	2.98 µM (inactive)	2.69 µM (inactive)	3.19 µM (inactive)	2.75 µM (inactive)	5.51 µM (inactive)	3.39 µM (inactive)	2.65 µM (inactive)	2.44 µM (inactive)	1.47 µM (inactive)	4.1 µM (inactive)
COc1ccc(/C(CCl)=C(\Nc2ccccc2)c2ccc(OC)c(OC)c2)cc1OC	> 100 µM (inactive)	> 100 µM (inactive)	82.6 µM (inactive)	71.9 µM (inactive)	> 100 µM (inactive)	> 100 µM (inactive)	> 100 µM (inactive)	–	85.7 µM (inactive)	> 100 µM (inactive)	> 100 µM (inactive)	> 100 µM (inactive)	> 100 µM (inactive)	46.5 µM (inactive)	> 100 µM (inactive)	> 100 µM (inactive)	78 µM (inactive)	68.2 µM (inactive)	> 100 µM (inactive)	> 100 µM (inactive)
CCOC(=O)NC(Nc1ccc(Cl)cn1)(C(F)(F)F)C(F)(F)F	> 100 µM (inactive)	> 100 µM (inactive)	> 100 µM (inactive)	–	> 100 µM (inactive)	> 100 µM (inactive)	–	–	–	> 100 µM (inactive)	> 100 µM (inactive)	> 100 µM (inactive)	> 100 µM (inactive)	41.4 µM (inactive)	> 100 µM (inactive)	> 100 µM (inactive)	–	> 100 µM (inactive)	> 100 µM (inactive)	> 100 µM (inactive)
